Source: US9409952B2, “Peptide-compound cyclization method” (Chugai Seiyaku Kabushiki Kaisha, priority 2011, dated 2016)
Starred links: 1 amine or outer side, 2 acyl side, 3 side chain; linkers in the order of their positions; H or OH if unused. Positions of bridges follow the written chain, without caps; N, C: chain ends. Non-standard residues stand in square brackets, D forms with d. Residues, ends and D or L forms follow the SMILES beside them. *: point of attachment. NMeF = CN[C@@H](Cc1ccccc1)C(=O)O; NMeGABA = CN(CCCC(=O)[*:2])[*:1]; NMeβAla = CN(CCC(=O)[*:2])[*:1]; NMeL = CN[C@@H](CC(C)C)C(=O)O; NMeV = CN[C@H](C(=O)O)C(C)C; NMeA = CN[C@@H](C)C(=O)O; Piperidide = C1CCN(*)CC1; dNMeA = CN[C@H](C)C(=O)O; Sar = CNCC(=O)O

What was measured:
[1] = PAMPA (parallel artificial membrane permeability assay); format: in vitro ADME; conditions: PAMPA; membrane permeation rate (Pe); 50 mM MOPSO buffer pH 6.5 with 5.0% glycocholic acid, 37° C., 18 hours; read-out: iPAMPA Pe
In short: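 Artificial membrane was 10% (w/v) egg lecithin plus 0.5% (w/v) cholesterol in dodecane on a PVDF filter. A 10 mM DMSO stock was added at 0.5% (v/v) to donor buffer (50 mM MOPSO, pH 6.5, 5.0% glycocholic acid). After 18 h at 37 °C, LC/MS or LC/UV gave donor and acceptor levels for Pe.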

[2] = Metabolic stability in human hepatic microsome; format: in vitro ADME; conditions: microsomes, pH 7.4; human hepatic microsome, NADPH(+); read-out: CL NADPH(+)

| SMILES | Papp at 18 hours, 50 µM [1] [×10⁻⁶ cm/s] | microsomal CLint at 1 uM [2] [µL/min/mg] |
| --- | --- | --- |
| CC(C)C[C@H]1C(=O)N[C@@H](C)C(=O)N(C)[C@@H](C)C(=O)N[C@H](C(=O)N(C)[C@@H](Cc2ccccc2)C(=O)N[C@@H](C)C(=O)N2CCCCC2)CC(=O)N(C)[C@H](C)C(=O)N(C)[C@@H](C(C)C)C(=O)N(C)[C@@H](C)C(=O)N[C@@H](Cc2ccccc2)C(=O)N[C@@H]([C@@H](C)O)C(=O)N(C)[C@@H](C)C(=O)N1C [DP-354] ([dNMeA][NMeV][NMeA]FT[NMeA][NMeL]A[NMeA]D[NMeF]A-Piperidide; lactam N-10) | 3.3 | 8 |
| CC(C)C[C@H]1C(=O)N[C@@H](Cc2ccccc2)C(=O)N[C@@H]([C@@H](C)O)C(=O)N(C)[C@@H](C)C(=O)N(C)[C@@H](Cc2ccccc2)C(=O)N(C)[C@@H](C(C)C)C(=O)NCC(=O)N[C@H](C(=O)N(C)[C@@H](Cc2ccccc2)C(=O)N[C@@H](C)C(=O)N2CCCCC2)CC(=O)N(C)[C@H](C)C(=O)N[C@@H](C)C(=O)N1C [DP-355] ([dNMeA]A[NMeL]FT[NMeA][NMeF][NMeV]GD[NMeF]A-Piperidide; lactam N-10) | 17 | 66 |
| CC(C)C[C@H]1C(=O)N[C@@H]([C@@H](C)O)C(=O)NCC(=O)N[C@@H](C(C)C)C(=O)N[C@H](C(=O)N(C)[C@@H](Cc2ccccc2)C(=O)N[C@@H](C)C(=O)N2CCCCC2)CC(=O)N(C)[C@H](C)C(=O)N(C)[C@@H](C(C)C)C(=O)N[C@@H](Cc2ccccc2)C(=O)N(C)[C@@H](Cc2ccccc2)C(=O)N(C)[C@@H](C)C(=O)N1C [DP-356] ([dNMeA][NMeV]F[NMeF][NMeA][NMeL]TGVD[NMeF]A-Piperidide; lactam N-10) | 34 | 66 |
| CC(C)C[C@H]1C(=O)N(C)[C@@H](C)C(=O)N[C@H](C(=O)N(C)[C@@H](Cc2ccccc2)C(=O)N[C@@H](C)C(=O)N2CCCCC2)CC(=O)N(C)[C@@H](C)C(=O)N(C)[C@@H](Cc2ccccc2)C(=O)N(C)[C@@H](C)C(=O)N[C@@H]([C@@H](C)O)C(=O)N(C)[C@@H](C)C(=O)N[C@@H](C(C)C)C(=O)N1C [DP-357] ([NMeA][NMeF][NMeA]T[NMeA]V[NMeL][NMeA]D[NMeF]A-Piperidide; lactam N-9) | 14 | 56 |
| CC(C)C[C@H]1C(=O)N[C@@H]([C@@H](C)O)C(=O)N(C)[C@@H](C)C(=O)N(C)[C@@H](CC(C)C)C(=O)N[C@H](C(=O)N(C)[C@@H](Cc2ccccc2)C(=O)N[C@@H](C)C(=O)N2CCCCC2)CC(=O)N(C)CCC(=O)N(C)[C@@H](Cc2ccccc2)C(=O)N(C)[C@@H](C(C)C)C(=O)N[C@@H](C(C)C)C(=O)N1C [DP-358] ([NMeβAla][NMeF][NMeV]V[NMeL]T[NMeA][NMeL]D[NMeF]A-Piperidide; lactam N-9) | 32 | 82 |
| CC(C)C[C@H]1C(=O)N(C)[C@@H](C)C(=O)N[C@@H]([C@@H](C)O)C(=O)N(C)[C@@H](C)C(=O)N(C)[C@@H](Cc2ccccc2)C(=O)N[C@@H](Cc2ccccc2)C(=O)N[C@H](C(=O)N(C)[C@@H](Cc2ccccc2)C(=O)N[C@@H](C)C(=O)N2CCCCC2)CC(=O)N(C)CCC(=O)N(C)[C@@H](C)C(=O)N[C@@H](C)C(=O)N(C)CC(=O)N1C [DP-361] ([NMeβAla][NMeA]A[Sar][NMeL][NMeA]T[NMeA][NMeF]FD[NMeF]A-Piperidide; lactam N-11) | 1.5 | 9 |
| CC(C)C[C@H]1C(=O)N[C@@H](Cc2ccccc2)C(=O)N(C)[C@@H](C)C(=O)N(C)[C@@H](C)C(=O)N[C@@H]([C@@H](C)O)C(=O)N(C)CC(=O)N(C)[C@@H](Cc2ccccc2)C(=O)N[C@H](C(=O)N(C)[C@@H](Cc2ccccc2)C(=O)N[C@@H](C)C(=O)N2CCCCC2)CC(=O)N(C)[C@H](C)C(=O)N(C)[C@@H](C)C(=O)N[C@@H](C)C(=O)N1C [DP-363] ([dNMeA][NMeA]A[NMeL]F[NMeA][NMeA]T[Sar][NMeF]D[NMeF]A-Piperidide; lactam N-11) | 5 | 15 |
| CC[C@H](C)[C@@H]1NC(=O)[C@@H]2CCCN2C(=O)[C@H](CC(C)C)N(C)C(=O)[C@H](Cc2ccccc2)NC(=O)CCCN(C)C(=O)C[C@@H](C(=O)N(C)[C@@H](Cc2ccccc2)C(=O)N[C@@H](C)C(=O)N2CCCCC2)NC(=O)[C@H]([C@@H](C)O)NC(=O)[C@H](CC(C)C)NC(=O)[C@H](Cc2ccccc2)N(C)C(=O)CNC(=O)[C@H](CC(C)C)N(C)C1=O [DP-364] ([NMeGABA]F[NMeL]PI[NMeL]G[NMeF]LTD[NMeF]A-Piperidide; lactam N-11) | 28 | 75 |
| CC(C)C[C@@H]1NC(=O)[C@H](CC(C)C)N(C)C(=O)CNC(=O)[C@H](C(C)C)N(C)C(=O)[C@H](C)N(C)C(=O)[C@H]([C@@H](C)O)NC(=O)[C@H](C)N(C)C(=O)CCCN(C)C(=O)C[C@@H](C(=O)N(C)[C@@H](Cc2ccccc2)C(=O)N[C@@H](C)C(=O)N2CCCCC2)NC(=O)[C@H](Cc2ccccc2)NC(=O)[C@H](CC(C)C)N(C)C1=O [DP-365] ([NMeGABA][NMeA]T[NMeA][NMeV]G[NMeL]L[NMeL]FD[NMeF]A-Piperidide; lactam N-11) | 20 | 35 |
| CC(C)C[C@H]1C(=O)N[C@@H](C)C(=O)N(C)[C@@H](Cc2ccccc2)C(=O)N(C)[C@@H](C(C)C)C(=O)N[C@@H](C)C(=O)N(C)[C@@H](C)C(=O)N[C@H](C(=O)N(C)[C@@H](Cc2ccccc2)C(=O)N[C@@H](C)C(=O)N2CCCCC2)CC(=O)N(C)[C@@H](C)C(=O)N(C)[C@@H](Cc2ccccc2)C(=O)N[C@@H]([C@@H](C)O)C(=O)N(C)[C@@H](C)C(=O)N1C [DP-367] ([NMeA][NMeF]T[NMeA][NMeL]A[NMeF][NMeV]A[NMeA]D[NMeF]A-Piperidide; lactam N-11) | 12 | 17 |
| CC(C)C[C@H]1C(=O)N(C)[C@@H](C)C(=O)N[C@@H](C)C(=O)N(C)[C@@H](C)C(=O)N(C)[C@@H](Cc2ccccc2)C(=O)N(C)[C@@H](C)C(=O)N[C@@H]([C@@H](C)O)C(=O)N(C)[C@@H](C)C(=O)N(C)[C@@H](C)C(=O)N[C@H](C(=O)N(C)[C@@H](Cc2ccccc2)C(=O)N[C@@H](C)C(=O)N2CCCCC2)CC(=O)N(C)[C@@H](C)C(=O)N1C [DP-368] ([NMeA][NMeL][NMeA]A[NMeA][NMeF][NMeA]T[NMeA][NMeA]D[NMeF]A-Piperidide; lactam N-11) | 1.6 | 6 |
| CC(C)C[C@H]1C(=O)N[C@@H]([C@@H](C)O)C(=O)N(C)[C@@H](C)C(=O)N[C@H](C(=O)N(C)[C@@H](Cc2ccccc2)C(=O)N[C@@H](C)C(=O)N2CCCCC2)CC(=O)N(C)CCC(=O)N(C)[C@@H](C(C)C)C(=O)N(C)[C@@H](Cc2ccccc2)C(=O)N(C)[C@@H](Cc2ccccc2)C(=O)N[C@@H](C)C(=O)N(C)[C@@H](C)C(=O)N1C [DP-370] ([NMeβAla][NMeV][NMeF][NMeF]A[NMeA][NMeL]T[NMeA]D[NMeF]A-Piperidide; lactam N-10) | 25 | 36 |
| CC[C@H](C)[C@@H]1NC(=O)CN(C)C(=O)[C@H](Cc2ccccc2)N(C)C(=O)[C@H](C)N(C)C(=O)[C@H]([C@@H](C)O)NC(=O)[C@H](CC(C)C)N(C)C(=O)[C@@H](C)N(C)C(=O)C[C@@H](C(=O)N(C)[C@@H](Cc2ccccc2)C(=O)N[C@@H](C)C(=O)N2CCCCC2)NC(=O)[C@H](C(C)C)N(C)C(=O)[C@H](CC(C)C)N(C)C1=O [DP-371] ([dNMeA][NMeL]T[NMeA][NMeF][Sar]I[NMeL][NMeV]D[NMeF]A-Piperidide; lactam N-10) | 34 | 31 |
